The text below walks through data of the METLIN SMRT retention time set (Domingo-Almenara et al. 2019).

The data set can be described thus: gradient 5% acetonitrile 3 min, to 50% in 2 min, to 85% in 15 min, held 3 min, 100 µL/min. The settings on record: column: Zorbax Extend-C18 2.1 x 50 mm; eluents: water / acetonitrile, 0.1% formic acid. In a few lines:
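Mixtures of ~100 pure standards were chromatographed on a Zorbax Extend-C18 column (2.1 × 50 mm, 1.8 μm) at 100 μL/min using water and acetonitrile, each with 0.1% formic acid. Detection used a quadrupole time-of-flight mass spectrometer in positive and negative ionization mode, and data collection spanned 3 months. Retention time was obtained from adduct peaks picked computationally and each checked manually.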
Molecule `COCc1cn(C2CN(C(=O)c3cnc(C)cn3)C2)nn1` displayed an RP-LC retention time of 592 s. Next, `O=C(Cc1cccs1)Nc1cccc(OCc2nnc(-c3ccc(Cl)cc3)o2)c1`: 1010 s. Next, `COc1ccc(-c2noc(CN3C(=O)COc4ccc(Cl)cc43)n2)c(OC)c1`: 962 s.

`COCCN1CCn2cc(S(=O)(=O)Nc3ccccc3OC)cc2C1=O` showed an RP-LC retention time of 679 s. Next, `Fc1ccc(-c2noc(-c3ccc(NC4CC4)nc3)n2)cc1`: 901 s; `O=C(O)c1ccc(Cn2cnc3ccccc32)o1`: 512 s.

`CCn1c(=O)c(N2CCN(C(=O)NCCc3ccccc3)CC2)nc2ccccc21` registered an RP-LC retention time of 902 s. Next, `Cc1ccc(NC(=O)Cn2nc(N3CCCCCC3)c3ccccc3c2=O)cc1F`: 1170 s. In the case of `CCOc1ccc(CC(=O)NC2CCN(c3cc(-c4cccs4)[nH]n3)C2)cc1OCC` (stereo not given), the RP-LC retention time stood at 727 s. Next, `Cn1c(=O)n([C@H]2CCN(C(=O)C3CC3)C2)c2ncccc21`: 639 s; `COc1ccc(-c2noc(C3CCCN3C(=O)Nc3ccc4c(c3)OCCO4)n2)cc1` (stereo not given): 752 s; `CCC(C)NC(=O)CCn1c(=O)c2ccccc2n2c(=O)n(Cc3ccccc3F)nc12` (stereo not given): 884 s. Then `O=C(Nc1ccccc1C(F)(F)F)NC1CCN(c2ccccc2)C1=O` (stereo not given), with 841 s; and `c1ccc2c(c1)CCN(c1nccnc1OC1CCNC1)C2` (stereo not given), with 649 s. In turn, `Cc1cc(NC(=O)CN2CCc3[nH]c4c(C)c(C)ccc4c(=O)c3C2)ccc1F` yielded an RP-LC retention time of 626 s. Then `Cc1cccc(NS(=O)(=O)c2cc(-c3[nH]ncc3C(=O)N3CCCC3)oc2C)c1`, with 716 s; and `Cc1ccc(N2C=C(C(=O)N3CCC(C)CC3)S(=O)(=O)c3ccccc32)cc1F`, with 974 s; and `COc1cc(-c2nnc(-c3cccc(S(=O)(=O)N4CCCC4)c3)o2)cc(OC)c1OC`, with 916 s. Then `CCc1nc2cc(-c3noc(CCc4ccccc4OC)n3)ccc2o1`, with 1190 s; and `CC1(C(=O)NC2CCCCCC2)CN(S(C)(=O)=O)CC(=O)N1Cc1ccc(Cl)cc1` (stereo not given), with 946 s. Next, `O=C(NCC1(c2cccs2)CC1)c1ccc(F)c(F)c1`: 887 s; `O=C(NCC1(CO)CC1)c1cccc(C(F)(F)F)c1`: 691 s; `Cn1cc(C(=O)NCc2ccccn2)c2cccnc21`: 552 s. Take `Clc1nccc2c1ccc1ccccc12`: the RP-LC retention time was found to be 1140 s.

In turn, `O=C(c1cccc(Nc2nc3ccccc3n3nnnc23)c1)N1CCN(c2ccccn2)CC1` displayed an RP-LC retention time of 655 s.

Molecule `O=C(Nc1cccc(Nc2ncc(Br)c(NCCc3cnc[nH]3)n2)c1)N1CCCC1` displayed an RP-LC retention time of 592 s. Next, `Cc1ccnc(NS(=O)(=O)c2ccc(N)cc2)n1`: 652 s; `CC(=O)Nc1ccc(OCC(=O)NC2CCN(Cc3ccccc3)CC2)nc1`: 572 s. Then `CCOC(=O)C1CCN(C(=O)c2n[nH]c(=O)c3ccccc23)CC1`, with 677 s; and `COCc1cc(=O)n(CC(=O)Nc2cc(OC)c(OC)c(OC)c2)c(N2CCOCC2)n1`, with 734 s; and `Cc1nc(-c2cc(S(=O)(=O)Nc3ccc(Br)cc3F)c(C)s2)cs1`, with 1070 s. Then `O=C(CCN1C(=O)C2CC=CCC2C1=O)N1CCN(c2ccccn2)CC1` (stereo not given), with 558 s; and `Cc1nc(-c2ccc(F)cc2)sc1C(=O)N[C@@H](Cc1c[nH]c2ccccc12)C(=O)O`, with 838 s; and `Fc1ccc(Nc2nc(NCC3CCCO3)nc3[nH]ncc23)cc1` (stereo not given), with 578 s. In turn, `O=C(CSc1ncc(-c2ccccc2)[nH]1)N1CCCc2ccccc21` returned an RP-LC retention time of 630 s.

For the molecule `Cc1ccc(S(=O)(=O)NCCc2cn(CC(C)C)c3ncccc23)cc1`, the RP-LC retention time was 921 s. `Cn1ccc2cc(S(=O)(=O)N3CCC(C(=O)NCC4CCCO4)CC3)ccc21` (stereo not given) gave an RP-LC retention time of 739 s. Then `C=CCNC(=O)c1ccc(-n2nc(C)cc2C)nc1`, with 739 s; and `O=C(NCCc1ccsc1)C(=O)Nc1cccc(N2CCCCC2=O)c1`, with 719 s; and `CCc1ccc(S(=O)(=O)N2c3ccccc3CC2c2nnc(C3CCOCC3)o2)cc1` (stereo not given), with 948 s. In turn, `O=C(c1cc(-c2ccncc2)n[nH]1)N1CCCC(C(=O)N2CCN(C(=O)c3ccco3)CC2)C1` (stereo not given) came in with an RP-LC retention time of 556 s. Then `CC(C)(C)c1ccc(C(=O)Nc2nc(-c3ccc(F)cc3)cs2)cc1`, with 1310 s. Next, `COc1cccc(CN2CCC(Oc3ccccc3-c3nc(-c4cnccn4)no3)C2)n1` (stereo not given): 702 s; `CC(=O)c1ccc(NC(=O)Cn2nc3c4cc(-c5ccc(Cl)cc5)nn4ccn3c2=O)cc1`: 894 s. Molecule `Cn1cnc2c(F)c(Nc3ccc(Br)cc3Cl)c(C(=O)NOCCO)cc21` showed an RP-LC retention time of 789 s. Then `O=C(NC1CCN(c2nnc3ccc(C(F)(F)F)cn23)CC1)c1cccc(F)c1`, with 782 s; and `COCCN1C(=O)c2ccccc2C(C(=O)NCCc2c[nH]c3ccccc23)C12CCCC2` (stereo not given), with 845 s; and `CNC(=O)c1cccc(NC(=O)N2CCC(Oc3ccccc3Cl)CC2)c1`, with 899 s.

For the molecule `Cc1ccc(NC(=O)Nc2ccccc2)c(=O)n1CC(=O)NCC1CCCO1` (stereo not given), the RP-LC retention time turned out to be 697 s. Then `COc1ccc(N2C(=O)C(O)=C(S(=O)(=O)c3ccccc3)C2c2ccccc2)cc1` (stereo not given), with 854 s; and `Cc1cccc(N2CCN(C(=O)Cn3ccc4ccc(N5CCOCC5)nc43)CC2)c1C`, with 1110 s. As for `CCN1CCCCc2cc(C(=O)N(C)CC(=O)NC)sc21`, the RP-LC retention time worked out at 738 s. Molecule `CCOc1cccc(CN2C[C@@H](CO)[C@H](c3ccncc3)C2)c1` displayed an RP-LC retention time of 546 s. Then `CCC(=O)NCc1nc2c(n1CC)CN(S(=O)(=O)c1cccc(F)c1)CC2`, with 529 s; and `O=C1CC2(CCN(C(=O)C3CC(=O)N(c4ccc(Cl)cc4)C3)CC2)Oc2ccccc21` (stereo not given), with 831 s. Next, `Cc1ccc(-n2ncc3c(N4CCN(C)CC4)ncnc32)cc1C`: 648 s.

With `CC(C)N1CCC(c2nnc3n2CCN(S(=O)(=O)c2ccccc2C(F)(F)F)C3)C1` (stereo not given), the RP-LC retention time was 631 s.

Take `COC(=O)c1c(C)[nH]c(C(=O)N2CCC(CC(=O)NCc3ccc(OC(C)C)cc3)CC2)c1C`: the RP-LC retention time was determined as 812 s. Then `O=S(=O)(c1cccc2cccnc12)N1CCc2ccccc2C1`, with 876 s. Next, `Cc1ccccc1NC(=O)Nc1cccnc1N(C)C`: 590 s; `O=C(CCc1c(-c2ccccc2)nc2ccccn12)Nc1ccc(F)cc1`: 674 s. Next, `COc1ccc(N2CCN(c3cc(SCC(=O)Nc4ccc(OC)cc4OC)ncn3)CC2)cc1`: 962 s; `COc1ccc(C2(C(=O)N3C[C@H]4C[C@H](C3)[C@H]3CCCC(=O)N3C4)CC2)cc1`: 679 s. As for `Cc1ccccc1NC(=O)CN1C(=O)NC2(CCCCC2)C1=O`, the RP-LC retention time worked out at 730 s. In turn, `COc1ccc(NC(=O)Cn2c(C)cc(-c3nnc(-c4ccccc4)o3)c2C)cc1F` gave an RP-LC retention time of 943 s.

`CCc1cc(=O)n(CC(=O)NCc2ccc(F)cc2Cl)c(N2CCOCC2)n1` showed an RP-LC retention time of 749 s. Next, `C=CCn1nnc(NCc2ccc(-c3cccc(Cl)c3)o2)n1`: 1050 s; `COc1ccccc1-c1nc(Cn2nnc(-c3nc(-c4cccs4)no3)c2C)c(C)o1`: 1050 s. Then `COc1ccc2c(c1)C1(CCN(C(=O)c3cccc(OC)c3OC)C1)C(=O)N2C` (stereo not given), with 737 s; and `CN(C)c1cccc(C(=O)NC2CCN(c3ccccc3)C2=O)c1` (stereo not given), with 667 s.

As for `Cc1ccc(CNC(=O)c2ccc3c(c2)N(C)C(=O)C2CCCCN32)cc1` (stereo not given), the RP-LC retention time stood at 908 s. Then `COc1ccc(C(=O)Nc2nnc(SCc3nnc(-c4ccccc4C)o3)s2)cc1`, with 966 s; and `COc1cccc(CNC(=O)Nc2c(-c3ccc(F)cc3)nc3ccccn23)c1`, with 652 s. Then `COc1ccc(Cl)cc1S(=O)(=O)N1CCc2nn(C)c(=O)n2CC1`, with 712 s.

In turn, `COc1ccc(-n2nc(N3CCN(C(=O)CC4CCCC4)CC3)ccc2=O)cc1` came in with an RP-LC retention time of 800 s. For the molecule `CCc1cc(=O)n(CC(=O)NCc2ccc(F)c(Cl)c2)c(N2CCOCC2)n1`, the RP-LC retention time worked out at 764 s. Next, `Cc1cc(C(=O)Nc2nc(-c3ccc(C)c(C)c3)c(C)s2)no1`: 1120 s. Then `Cc1cc(C)cc(NS(=O)(=O)c2cn(CC(C)C)c3ncccc23)c1`, with 763 s. Next, `CCn1c(=O)c(C)nc2cc(-c3noc(C(C)NC(=O)c4ccco4)n3)ccc21` (stereo not given): 866 s. `CC(=O)N(Cc1nn(C)c2c1CN(S(=O)(=O)c1ccc(F)c(Cl)c1)CC2)c1ccccc1`: the RP-LC retention time came out at 860 s.
